# Experimental data reported in patent US20130296311A1, “INHIBITORS OF HCV NS5A” (PRESIDIO PHARMACEUTICALS, INC., priority 2010, published 2013).
# System: HCV 1b_Huh-Luc/Neo-ET cell line persistently expressing a bicistronic genotype 1b replicon in Huh 7 cells
# Experiment: HCV replicon assay (luciferase readout, 72 h)
# Format: cell-based, HCV genotype 1b
# Settings: Hepatitis C virus, Huh-7, 72 h, read-out: Inhibition of HCV genotype 1b
# Method: Biological activity of the compounds of the invention was determined using an HCV replicon assay. The HCV 1b_Huh-Luc/Neo-ET cell line persistently expressing a bicistronic genotype 1b replicon in Huh 7 cells was obtained from ReBLikon GMBH. This cell line was used to test compound inhibition using luciferase enzyme activity readout as a measurement of compound inhibition of replicon levels.
# On Day 1 (the day after plating), each compound is added in triplicate to the cells. Plates incubated for 72 h prior to running the luciferase assay. Enzyme activity was measured using a Bright-Glo Kit (cat. number E2620) manufactured by Promega Corporation. The following equation was used to generate a percent control value for each compound.
# % Control=(Average Compound Value/Average Control)*100
# The EC50 value was determined using GraphPad Prism and the following equation:
# Y=Bottom+(Top-Bottom)/(1+10̂((LogIC50−X)*HillSlope))
# EC50 values of compounds are determined several times in the replicon assay.
# Example compounds of the disclosed invention are illustrated in Tables 1-16 attached as appendices. The tables show inhibitory activity of many of the example compounds with respect to HCV 1b. […] The tables further provide mass spectrometry results for the synthesized example compounds.
row,SMILES,EC50 [nM]
1,COC(=O)N[C@@H](C(=O)N1CCC[C@H]1c1ncc(-c2ccc(C#Cc3ccc(-c4cnc([C@@H]5CCCN5C(=O)[C@H](NC(=O)OC)c5ccccc5)[nH]4)c(F)c3)cc2)[nH]1)c1ccccc1 [Compound 1013],< 1
2,COC(=O)N[C@@H](C(=O)N1CCC[C@H]1c1ncc(-c2ccc(C#Cc3ccc(-c4cnc([C@@H]5CCCN5C(=O)[C@H](OC)c5ccccc5)[nH]4)cc3)cc2)[nH]1)c1ccccc1 [Compound 179],< 1
3,COC(=O)N[C@H](C(=O)N1CCC[C@H]1c1ncc(-c2ccc(C#Cc3ccc(-c4cnc([C@@H]5CCCN5C(=O)[C@@H](c5ccccc5)N(C)C)[nH]4)cc3)cc2)[nH]1)C(C)C [Compound 955],< 1
4,COC(=O)N[C@@H](C(=O)N1CCC[C@H]1c1ncc(-c2ccc(C#Cc3ccc(-c4cnc([C@@H]5CCCN5C(=O)[C@H](C)c5ccccc5)[nH]4)cc3)cc2)[nH]1)c1ccccc1 [Compound 256],< 1
5,CC(C)(C)OC(=O)NCC(=O)N1CCC[C@H]1c1ncc(C#Cc2ccc(-c3cnc([C@@H]4CCCN4C(=O)CNC(=O)OC(C)(C)C)[nH]3)cc2)[nH]1 [Compound 103],10 to 999
6,CC(C)(C)OC(=O)N[C@@H](C(=O)N1CCC[C@H]1CNC(=O)c1ccc(C#Cc2ccc(-c3cnc([C@@H]4CCCN4C(=O)[C@H](NC(=O)OC(C)(C)C)c4ccccc4)[nH]3)cc2)cc1)c1ccccc1 [Compound 192],1 to 9.9
7,COC(=O)N[C@H](C(=O)N1CCC[C@H]1c1nc(-c2cnc3cc(C#Cc4ccc(-c5cnc([C@@H]6CCCN6C(=O)[C@@H](NC(=O)OC)C(C)C)[nH]5)cc4)ccc3c2)c[nH]1)C(C)C [Compound 1088],1 to 9.9
8,C[C@H](NC(=O)[C@@H]1CCCN1C(=O)[C@H](NC(=O)OC(C)(C)C)c1ccccc1)c1ccc(C#Cc2cnc([C@@H]3CCCN3C(=O)[C@H](NC(=O)OC(C)(C)C)c3ccccc3)[nH]2)cc1 [Compound 130],10 to 999
9,CNC(=O)N[C@@H](C(=O)N1CCC[C@H]1c1ncc(C#Cc2ccc(C#Cc3cnc([C@@H]4CCCN4C(=O)[C@H](NC(=O)NC)c4ccccc4)[nH]3)cc2)[nH]1)c1ccccc1 [Compound 307],< 1
10,COC(=O)N[C@H](C(=O)N1CCC[C@H]1c1ncc(C#Cc2ccc(-c3ccc(-c4cnc([C@@H]5CCCN5C(=O)[C@@H](NC(=O)OC)C(C)C)[nH]4)cc3)cc2)[nH]1)C(C)C [Compound 756],< 1
11,COC(=O)N[C@H](C(=O)N1CCC[C@H]1c1ncc(-c2ccc(C#Cc3ccc(-c4cnc([C@@H]5CCCN5C(=O)[C@@H](c5ccccc5)N5CCN(C)CC5)[nH]4)cc3)cc2)[nH]1)C(C)C [Compound 957],< 1
12,O=C(N[C@@H](C(=O)N1CCC[C@H]1c1ncc(C#Cc2ccc(-c3ccc(-c4cnc([C@@H]5CCCN5C(=O)[C@H](NC(=O)N5CCOCC5)c5ccccc5)[nH]4)cc3)cc2)[nH]1)c1ccccc1)N1CCOCC1 [Compound 761],< 1
13,COC(=O)N[C@H](C(=O)N1CCC[C@H]1c1ncc(-c2ccc(C#Cc3ccc(-c4cnc([C@@H]5CCCN5C(=O)[C@@H](c5ccccc5)N5CCC(C)(O)CC5)[nH]4)cc3)cc2)[nH]1)C(C)C [Compound 970],< 1
14,COC(=O)NCC(=O)N1CCC[C@H]1c1ncc(-c2ccc(C#Cc3ccc4nc([C@@H]5CCCN5C(=O)CNC(=O)OC)[nH]c4c3)cc2)[nH]1 [Compound 1049],10 to 999
15,CC(C)(C)OC(=O)N[C@@H](C(=O)N1CCC[C@H]1c1ncc(C#Cc2ccc(-c3cnc([C@@H]4CCCN4C(=O)[C@H](NC(=O)OC(C)(C)C)c4ccccc4)[nH]3)cc2)[nH]1)c1ccccc1 [Compound 99],< 1
16,O=S(=O)(c1ccccc1)N1CCC[C@H]1c1ncc(-c2ccc(C#Cc3ccc4nc([C@@H]5CCCN5S(=O)(=O)c5ccccc5)[nH]c4c3)cc2)[nH]1 [Compound 1038],> 1000

row,SMILES,EC50 [nM]
1,C[C@@H](NC(=O)C1CC1)C(=O)N1CCC[C@H]1c1ncc(C#Cc2ccc(-c3cnc([C@@H]4CCCN4C(=O)[C@@H](C)NC(=O)C4CC4)[nH]3)cc2)[nH]1 [Compound 111],1 to 9.9
2,COC(=O)N[C@@H](C(=O)N1CCC[C@H]1c1ncc(-c2ccc(C#Cc3ccc(-c4cnc([C@@H]5CCCN5C(=O)[C@H](NC(=O)N5CCC[C@@H]5CO)c5ccccc5)[nH]4)cc3)cc2)[nH]1)c1ccccc1 [Compound 254],< 1
3,COC(=O)N[C@@H](C(=O)N1CCC[C@H]1c1ncc(-c2ccc(C#Cc3ccc(C(=O)NC[C@@H]4CCCN4C(=O)[C@@H](c4ccccc4)N4CCCCC4)cc3)cc2)[nH]1)c1ccccc1 [Compound 233],< 1
4,COC(=O)N[C@@H](C(=O)N1CCC[C@H]1c1ncc(C#Cc2ccc(-c3ccc(-c4cnc([C@@H]5CCCN5C(=O)[C@@H](c5ccccc5)N5CCCC5)[nH]4)cc3)cc2)[nH]1)c1ccccc1 [Compound 759],< 1
5,COC(=O)N[C@@H](C(=O)N1CCC[C@H]1c1ncc(-c2ccc(C#Cc3ccc(-c4cnc([C@@H]5CCCN5C(=O)c5cccnc5)[nH]4)cc3)cc2)[nH]1)c1ccccc1 [Compound 183],< 1
6,COC(=O)N[C@H](C(=O)N1CCC[C@H]1c1nc2c([nH]1)-c1ccc(C#Cc3ccc4nc([C@@H]5CCCN5C(=O)[C@H](NC(=O)OC)c5ccccc5)[nH]c4c3)cc1CC2)C(C)C [Compound 1103],< 1
7,COC(=O)N[C@@H](C(=O)N1CCC[C@H]1c1ncc(-c2ccc(C#Cc3ccc(-c4cnc([C@@H]5CCCN5C(=O)[C@H](NC(=O)OC)c5ccccc5)[nH]4)cc3)cc2)[nH]1)c1ccccc1 [Compound 156],< 1
8,COC(=O)N[C@@H](C(=O)N1CCC[C@H]1c1ncc(-c2ccc(C#Cc3ccc(-c4cnc([C@@H]5CCCN5C(=O)[C@H](NC(=O)N5CCCCC5)c5ccccc5)[nH]4)cc3)cc2)[nH]1)c1ccccc1 [Compound 242],< 1
9,COC(=O)N[C@@H](C(=O)N1CCC[C@H]1c1ncc(-c2ccc(C#Cc3ccc(-c4cnc([C@@H]5CCCN5C(=O)[C@@H]5CCCN5C)[nH]4)cc3)cc2)[nH]1)c1ccccc1 [Compound 202],< 1
10,COC(=O)N[C@H](C(=O)N[C@@H](C)c1ncc(-c2ccc(C#Cc3ccc4nc([C@@H]5CCCN5C(=O)[C@@H](NC(=O)OC)C(C)C)[nH]c4c3)cc2)[nH]1)C(C)C [Compound 869],< 1
11,COC(=O)N[C@@H](CC(=O)O)C(=O)N1CCC[C@H]1c1ncc(-c2ccc(C#Cc3ccc4nc([C@@H]5CCCN5C(=O)[C@H](CC(=O)O)NC(=O)OC)[nH]c4c3)cc2)[nH]1 [Compound 1061],10 to 999
12,COC(=O)N[C@@H](C(=O)N1CCC[C@H]1c1ncc(C#Cc2ccc(-c3ccc(-c4cnc([C@@H]5CCCN5C(=O)[C@@H](c5ccccc5)N5CCCCC5)[nH]4)cc3)cc2)[nH]1)c1ccccc1 [Compound 752],< 1
13,CN(C)C(=O)N[C@@H](C(=O)N1CCC[C@H]1c1ncc(C#Cc2ccc(C#Cc3cnc([C@@H]4CCCN4C(=O)[C@H](NC(=O)N(C)C)c4ccccc4)[nH]3)cc2)[nH]1)c1ccccc1 [Compound 308],< 1
14,O=C(N[C@@H](C(=O)N1CCC[C@H]1c1ncc(C#Cc2ccc(C#Cc3cnc([C@@H]4CCCN4C(=O)[C@H](NC(=O)N4CCOCC4)c4ccccc4)[nH]3)cc2)[nH]1)c1ccccc1)N1CCOCC1 [Compound 309],< 1
15,COC(=O)N[C@H](C(=O)N1CCC[C@H]1c1ncc(-c2ccc(C#Cc3ccc(-c4cnc([C@@H]5CCCN5C(=O)[C@@H](NC(=O)OC)[C@@H](C)O)[nH]4)cc3)cc2)[nH]1)C(C)C [Compound 971],< 1

# Same assay, conditions: Hepatitis C virus, Huh-7, read-out: Inhibition of HCV genotype 1b
row,SMILES,EC50 [nM]
1,COC(=O)N[C@H](C(=O)N1CCN(C(=O)OC)C[C@H]1c1ncc(-c2ccc(C#Cc3ccc(-c4cnc([C@@H]5CCCN5C(=O)[C@H](NC(=O)OC5CCOCC5)c5ccccc5)[nH]4)cc3)cc2)[nH]1)C(C)C [Compound 1207],< 1
2,COC(=O)N[C@H](C(=O)N[C@@H](C)c1ncc(-c2ccc(C#Cc3ccc4nc([C@@H]5CCCN5C(=O)[C@@H](NC(=O)OC)C(C)C)[nH]c4c3)cc2)[nH]1)C(C)C [Compound 1225],< 1
3,COC(=O)N[C@H](C(=O)N1CCC[C@H]1c1ncc(-c2ccc3cc(C#Cc4[nH]c([C@@H]5CCCN5C(=O)[C@@H](NC(=O)OC)[C@@H](C)OC)nc4C(F)(F)F)ccc3c2)[nH]1)C1CCCC1 [Compound 1260],< 1
4,COC(=O)N[C@H](C(=O)N1CCC[C@H]1c1ncc(-c2ccc(C#Cc3ccc4nc([C@@H]5CCCN5C(=O)[C@@H](NC(=O)OC)C5CCCC5)[nH]c4n3)cc2)[nH]1)C1CCCC1 [Compound 1250],< 1
5,CC[C@H](C)[C@H](NC(=O)OC)C(=O)N1CCC[C@H]1c1ncc(-c2ccc3cc(C#Cc4[nH]c([C@@H]5CCCN5C(=O)[C@@H](NC(=O)OC)[C@@H](C)CC)nc4C(F)(F)F)ccc3c2)[nH]1 [Compound 1253],< 1
6,COC(=O)N[C@H](C(=O)N1CCC[C@H]1c1ncc(-c2ccc(C#Cc3ccc(-c4cnc([C@@H]5CCCN5C(=O)[C@@H](NC(=O)OC)C5CCOCC5)[nH]4)cc3)cc2)[nH]1)C(C)C [Compound 1219],< 1
7,COC(=O)N[C@H](C(=O)N1CCC[C@H]1c1ncc(-c2ccc(C#Cc3ccc(-c4cnc([C@@H]5CCCN5C(=O)[C@H](NC(=O)OC)c5ccsc5)[nH]4)cc3)cc2)[nH]1)[C@@H](C)OC [Compound 1212],< 1
8,COC(=O)N[C@H](C(=O)N1CCN(C(C)=O)C[C@H]1c1ncc(-c2ccc(C#Cc3ccc4nc([C@@H]5CCCN5C(=O)[C@@H](NC(=O)OC)C5CCOCC5)[nH]c4c3)cc2)[nH]1)C1CCOCC1 [Compound 1234],1 to 9.9
